The target of data set [1] is T1, Muscarinic acetylcholine receptor M2 (Homo sapiens, UniProt P08172).
T1 sequence (P08172 whole entry): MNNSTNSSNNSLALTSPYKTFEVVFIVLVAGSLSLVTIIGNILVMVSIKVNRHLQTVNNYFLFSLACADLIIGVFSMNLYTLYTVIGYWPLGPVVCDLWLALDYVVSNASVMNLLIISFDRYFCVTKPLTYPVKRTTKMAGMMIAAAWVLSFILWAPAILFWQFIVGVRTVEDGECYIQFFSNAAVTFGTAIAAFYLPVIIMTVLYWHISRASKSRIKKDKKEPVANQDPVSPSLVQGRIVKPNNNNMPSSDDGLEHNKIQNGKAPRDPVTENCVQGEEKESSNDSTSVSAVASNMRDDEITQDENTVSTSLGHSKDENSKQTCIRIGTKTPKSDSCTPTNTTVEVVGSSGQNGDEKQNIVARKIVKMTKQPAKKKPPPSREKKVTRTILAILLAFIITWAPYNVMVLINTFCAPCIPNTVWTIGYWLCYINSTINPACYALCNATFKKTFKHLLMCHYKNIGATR
Format: functional, cell-based.

Data set [2] concerns the target cGMP-inhibited 3',5'-cyclic phosphodiesterase 3A (Homo sapiens, UniProt Q14432). Format: functional.
For data set [3], the target named is Voltage-dependent L-type calcium channel subunit alpha-1C (Rattus norvegicus, UniProt P22002). In kind it is functional.
Chain of Voltage-dependent L-type calcium channel subunit alpha-1C (P22002 whole entry): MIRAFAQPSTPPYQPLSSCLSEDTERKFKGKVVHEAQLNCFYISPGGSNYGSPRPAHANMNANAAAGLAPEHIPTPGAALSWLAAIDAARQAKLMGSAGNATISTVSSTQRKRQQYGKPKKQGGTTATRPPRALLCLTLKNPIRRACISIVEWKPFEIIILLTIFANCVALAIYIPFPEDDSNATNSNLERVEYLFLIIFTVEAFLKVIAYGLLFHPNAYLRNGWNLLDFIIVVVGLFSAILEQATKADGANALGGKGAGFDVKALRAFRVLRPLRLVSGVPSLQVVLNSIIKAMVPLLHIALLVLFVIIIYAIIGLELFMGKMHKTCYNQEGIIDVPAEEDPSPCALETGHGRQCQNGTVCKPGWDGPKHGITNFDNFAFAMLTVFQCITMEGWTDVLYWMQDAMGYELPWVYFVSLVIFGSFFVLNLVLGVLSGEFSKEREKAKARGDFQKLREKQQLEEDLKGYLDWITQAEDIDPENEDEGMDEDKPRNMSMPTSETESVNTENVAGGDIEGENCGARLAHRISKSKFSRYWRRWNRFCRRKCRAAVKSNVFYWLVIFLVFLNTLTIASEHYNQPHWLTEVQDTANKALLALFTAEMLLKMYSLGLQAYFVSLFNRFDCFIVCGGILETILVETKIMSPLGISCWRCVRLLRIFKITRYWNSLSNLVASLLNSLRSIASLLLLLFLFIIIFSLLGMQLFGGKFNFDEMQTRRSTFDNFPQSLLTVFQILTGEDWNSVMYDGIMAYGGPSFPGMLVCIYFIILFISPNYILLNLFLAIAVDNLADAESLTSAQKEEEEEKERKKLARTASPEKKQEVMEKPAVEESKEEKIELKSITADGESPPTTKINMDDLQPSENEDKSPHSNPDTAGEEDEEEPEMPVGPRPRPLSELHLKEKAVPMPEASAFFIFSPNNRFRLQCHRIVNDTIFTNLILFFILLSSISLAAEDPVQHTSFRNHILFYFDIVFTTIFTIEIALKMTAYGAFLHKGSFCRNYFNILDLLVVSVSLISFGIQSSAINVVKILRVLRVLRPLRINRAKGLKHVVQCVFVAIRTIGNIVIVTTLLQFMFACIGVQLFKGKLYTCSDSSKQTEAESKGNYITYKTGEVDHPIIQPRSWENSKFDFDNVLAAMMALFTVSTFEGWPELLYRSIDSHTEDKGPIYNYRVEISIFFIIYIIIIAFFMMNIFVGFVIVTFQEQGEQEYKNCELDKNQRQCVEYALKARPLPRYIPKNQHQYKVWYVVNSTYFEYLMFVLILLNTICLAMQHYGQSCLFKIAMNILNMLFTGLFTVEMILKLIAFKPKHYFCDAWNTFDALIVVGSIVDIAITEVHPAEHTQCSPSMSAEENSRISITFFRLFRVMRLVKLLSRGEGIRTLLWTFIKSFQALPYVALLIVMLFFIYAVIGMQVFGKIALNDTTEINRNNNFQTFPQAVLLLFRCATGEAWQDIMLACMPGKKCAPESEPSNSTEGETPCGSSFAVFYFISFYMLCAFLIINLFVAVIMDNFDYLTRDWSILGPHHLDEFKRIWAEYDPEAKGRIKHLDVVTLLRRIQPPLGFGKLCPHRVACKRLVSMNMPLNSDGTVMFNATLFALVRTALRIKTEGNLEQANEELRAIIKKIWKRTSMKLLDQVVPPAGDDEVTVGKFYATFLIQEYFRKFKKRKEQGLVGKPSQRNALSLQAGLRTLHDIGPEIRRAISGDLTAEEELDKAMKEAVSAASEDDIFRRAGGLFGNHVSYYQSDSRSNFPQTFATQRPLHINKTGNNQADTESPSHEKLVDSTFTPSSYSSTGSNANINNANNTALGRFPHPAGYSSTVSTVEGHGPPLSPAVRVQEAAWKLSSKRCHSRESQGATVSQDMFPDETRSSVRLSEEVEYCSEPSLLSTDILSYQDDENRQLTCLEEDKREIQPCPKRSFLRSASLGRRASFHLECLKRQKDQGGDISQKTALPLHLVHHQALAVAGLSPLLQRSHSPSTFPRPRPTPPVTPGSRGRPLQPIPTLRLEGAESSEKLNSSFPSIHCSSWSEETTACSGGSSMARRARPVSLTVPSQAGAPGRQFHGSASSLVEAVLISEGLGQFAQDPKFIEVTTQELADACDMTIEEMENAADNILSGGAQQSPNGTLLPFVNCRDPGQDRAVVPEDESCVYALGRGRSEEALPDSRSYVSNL
In data set [4] the target is T2, 5-hydroxytryptamine receptor 2C (Homo sapiens, UniProt P28335).
T2 sequence (P28335 whole entry): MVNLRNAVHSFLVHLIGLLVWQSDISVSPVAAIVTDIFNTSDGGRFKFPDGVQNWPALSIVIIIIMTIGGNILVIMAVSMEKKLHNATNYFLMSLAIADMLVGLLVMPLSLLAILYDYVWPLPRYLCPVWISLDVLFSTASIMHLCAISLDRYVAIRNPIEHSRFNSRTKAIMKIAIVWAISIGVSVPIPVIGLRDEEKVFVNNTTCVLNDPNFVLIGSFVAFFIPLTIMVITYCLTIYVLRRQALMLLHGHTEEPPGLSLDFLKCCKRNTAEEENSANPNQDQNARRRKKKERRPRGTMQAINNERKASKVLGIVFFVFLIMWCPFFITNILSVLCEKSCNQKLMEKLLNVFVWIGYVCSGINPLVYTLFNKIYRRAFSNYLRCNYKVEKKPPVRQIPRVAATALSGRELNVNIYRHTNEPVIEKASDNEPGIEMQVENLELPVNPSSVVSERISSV

The target of data set [5] is T3, Amine oxidase [flavin-containing] A (Homo sapiens, UniProt P21397).
T3 sequence (P21397 whole entry): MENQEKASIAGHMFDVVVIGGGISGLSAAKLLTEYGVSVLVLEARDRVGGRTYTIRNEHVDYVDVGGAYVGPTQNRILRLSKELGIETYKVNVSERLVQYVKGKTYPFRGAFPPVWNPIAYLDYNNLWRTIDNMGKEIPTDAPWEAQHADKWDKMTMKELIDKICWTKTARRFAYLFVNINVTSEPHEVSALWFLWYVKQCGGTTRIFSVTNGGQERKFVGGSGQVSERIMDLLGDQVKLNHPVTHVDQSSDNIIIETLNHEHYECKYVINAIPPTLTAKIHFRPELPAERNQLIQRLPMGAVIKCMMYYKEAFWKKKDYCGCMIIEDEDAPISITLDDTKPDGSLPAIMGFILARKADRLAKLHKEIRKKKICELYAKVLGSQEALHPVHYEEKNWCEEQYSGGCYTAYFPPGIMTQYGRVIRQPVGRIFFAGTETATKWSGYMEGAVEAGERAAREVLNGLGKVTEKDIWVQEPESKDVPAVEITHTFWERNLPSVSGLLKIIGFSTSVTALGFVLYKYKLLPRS
Format: functional.

The next data set deals with D(1A) dopamine receptor (Homo sapiens, UniProt P21728). Format: functional, cell-based.
Chain of D(1A) dopamine receptor (P21728 whole entry): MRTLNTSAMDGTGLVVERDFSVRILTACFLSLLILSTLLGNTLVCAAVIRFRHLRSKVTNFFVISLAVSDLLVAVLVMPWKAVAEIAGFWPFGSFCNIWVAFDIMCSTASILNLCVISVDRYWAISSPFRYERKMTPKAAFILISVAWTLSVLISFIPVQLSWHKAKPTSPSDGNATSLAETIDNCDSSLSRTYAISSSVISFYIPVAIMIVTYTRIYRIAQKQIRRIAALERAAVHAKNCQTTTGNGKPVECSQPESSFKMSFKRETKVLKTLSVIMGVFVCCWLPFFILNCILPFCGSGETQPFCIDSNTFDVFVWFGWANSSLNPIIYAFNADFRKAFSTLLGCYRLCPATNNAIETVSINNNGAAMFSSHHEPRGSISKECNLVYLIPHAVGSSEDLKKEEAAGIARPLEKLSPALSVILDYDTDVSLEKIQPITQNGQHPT
For data set [6], the target named is Voltage-gated inwardly rectifying potassium channel KCNH2 (Homo sapiens, UniProt Q12809). Format: functional.
Chain of Voltage-gated inwardly rectifying potassium channel KCNH2 (Q12809 whole entry): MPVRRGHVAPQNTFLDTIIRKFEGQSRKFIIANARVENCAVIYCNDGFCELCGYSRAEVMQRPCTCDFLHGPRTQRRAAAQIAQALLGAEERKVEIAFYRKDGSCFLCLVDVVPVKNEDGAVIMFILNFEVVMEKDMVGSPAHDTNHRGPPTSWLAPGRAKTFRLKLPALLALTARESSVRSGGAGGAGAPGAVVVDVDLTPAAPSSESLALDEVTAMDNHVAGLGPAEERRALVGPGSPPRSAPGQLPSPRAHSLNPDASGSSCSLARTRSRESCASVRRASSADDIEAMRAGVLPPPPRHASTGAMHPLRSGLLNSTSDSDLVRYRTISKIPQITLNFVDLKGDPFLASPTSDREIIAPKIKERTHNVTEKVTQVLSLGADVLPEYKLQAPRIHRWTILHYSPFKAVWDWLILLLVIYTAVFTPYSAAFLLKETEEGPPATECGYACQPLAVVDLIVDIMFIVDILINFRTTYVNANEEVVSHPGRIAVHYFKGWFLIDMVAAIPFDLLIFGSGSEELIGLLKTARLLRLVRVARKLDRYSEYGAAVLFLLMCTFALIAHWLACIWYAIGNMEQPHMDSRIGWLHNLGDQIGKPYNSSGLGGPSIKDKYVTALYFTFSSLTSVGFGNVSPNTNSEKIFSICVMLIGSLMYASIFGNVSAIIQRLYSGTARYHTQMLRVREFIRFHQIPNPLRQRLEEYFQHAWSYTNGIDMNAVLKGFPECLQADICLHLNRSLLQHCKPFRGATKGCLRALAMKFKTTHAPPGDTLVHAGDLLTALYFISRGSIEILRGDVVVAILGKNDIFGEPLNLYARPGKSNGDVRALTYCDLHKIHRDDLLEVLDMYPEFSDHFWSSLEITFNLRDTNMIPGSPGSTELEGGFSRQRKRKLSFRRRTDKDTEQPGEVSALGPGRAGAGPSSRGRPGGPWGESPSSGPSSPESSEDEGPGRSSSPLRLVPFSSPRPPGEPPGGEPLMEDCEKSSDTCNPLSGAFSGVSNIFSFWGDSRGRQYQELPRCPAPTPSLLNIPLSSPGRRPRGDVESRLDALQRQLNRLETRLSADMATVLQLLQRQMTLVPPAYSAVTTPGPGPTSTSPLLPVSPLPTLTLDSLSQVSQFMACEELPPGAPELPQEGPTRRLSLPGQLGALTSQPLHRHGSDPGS
The target in data set [7] is T1, Muscarinic acetylcholine receptor M2. Format: functional, cell-based. The source holds these as a separate data set.
The target of data set [8] is T4, Alpha-1A adrenergic receptor (Homo sapiens, UniProt P35348).
T4 sequence (P35348 whole entry): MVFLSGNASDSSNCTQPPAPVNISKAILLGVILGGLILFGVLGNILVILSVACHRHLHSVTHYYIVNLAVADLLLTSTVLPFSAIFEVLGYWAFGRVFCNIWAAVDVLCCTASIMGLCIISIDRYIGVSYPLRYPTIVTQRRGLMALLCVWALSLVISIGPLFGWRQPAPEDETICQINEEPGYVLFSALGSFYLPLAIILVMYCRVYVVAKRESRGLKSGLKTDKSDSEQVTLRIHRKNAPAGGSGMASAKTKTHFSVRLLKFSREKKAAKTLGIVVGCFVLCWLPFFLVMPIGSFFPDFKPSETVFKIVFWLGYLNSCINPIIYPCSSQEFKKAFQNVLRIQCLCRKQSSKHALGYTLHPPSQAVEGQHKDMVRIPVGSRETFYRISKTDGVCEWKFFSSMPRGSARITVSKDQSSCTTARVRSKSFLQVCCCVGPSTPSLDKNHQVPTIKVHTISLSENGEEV
Format: functional, cell-based.

The target in data set [9] is Sodium-dependent dopamine transporter (Homo sapiens, UniProt Q01959).
Chain of Sodium-dependent dopamine transporter (Q01959 whole entry): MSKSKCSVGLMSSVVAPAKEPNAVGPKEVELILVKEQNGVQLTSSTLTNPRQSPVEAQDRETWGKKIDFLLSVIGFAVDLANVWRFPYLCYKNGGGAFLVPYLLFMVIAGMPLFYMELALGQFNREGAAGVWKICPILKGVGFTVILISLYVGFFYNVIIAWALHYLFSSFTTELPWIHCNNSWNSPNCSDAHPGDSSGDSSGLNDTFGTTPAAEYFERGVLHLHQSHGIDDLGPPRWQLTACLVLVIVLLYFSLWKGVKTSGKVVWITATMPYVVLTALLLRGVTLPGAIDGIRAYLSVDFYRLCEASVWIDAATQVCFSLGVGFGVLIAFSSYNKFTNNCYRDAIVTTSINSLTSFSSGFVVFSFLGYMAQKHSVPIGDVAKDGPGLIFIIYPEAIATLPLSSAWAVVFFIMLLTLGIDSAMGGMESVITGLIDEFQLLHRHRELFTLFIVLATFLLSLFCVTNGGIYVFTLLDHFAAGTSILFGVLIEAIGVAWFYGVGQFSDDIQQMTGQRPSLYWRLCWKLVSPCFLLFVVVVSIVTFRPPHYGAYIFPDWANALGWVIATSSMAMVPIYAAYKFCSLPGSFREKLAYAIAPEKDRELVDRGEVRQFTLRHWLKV
Data set [10] deals with T5, Alpha-2A adrenergic receptor (Homo sapiens, UniProt P08913).
T5 sequence (P08913 whole entry): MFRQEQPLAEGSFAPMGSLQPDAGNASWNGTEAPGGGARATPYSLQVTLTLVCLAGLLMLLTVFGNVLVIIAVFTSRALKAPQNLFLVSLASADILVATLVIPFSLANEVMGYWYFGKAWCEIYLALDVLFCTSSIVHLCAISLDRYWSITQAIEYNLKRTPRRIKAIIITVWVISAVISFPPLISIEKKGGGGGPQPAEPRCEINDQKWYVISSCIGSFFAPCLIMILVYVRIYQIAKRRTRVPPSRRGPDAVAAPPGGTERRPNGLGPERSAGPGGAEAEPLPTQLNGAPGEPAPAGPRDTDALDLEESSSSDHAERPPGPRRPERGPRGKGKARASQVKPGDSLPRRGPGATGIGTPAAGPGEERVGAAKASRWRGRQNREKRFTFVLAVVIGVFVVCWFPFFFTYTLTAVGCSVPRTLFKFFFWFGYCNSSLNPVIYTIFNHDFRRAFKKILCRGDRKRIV
In kind it is functional, cell-based.

Data on 15 compounds can be found in ChEMBL document CHEMBL5291721, “A preclinical secondary pharmacology resource illuminates target-adverse drug reaction associations of marketed drugs” (Nat Commun, 2023).

As a reminder, the AC50 is the concentration giving half of the maximal activity seen.
Also: assay procedure not described here.

Take `O=C1C(O)=C([C@H]2CC[C@H](c3ccc(Cl)cc3)CC2)C(=O)c2ccccc21` [ATOVAQUONE]: the AC50 (in [1]; in data set [2]; in [3]; in data set [4]; in data set [5]; at D(1A) dopamine receptor) was over 30 µM each time. Besides, the concentration at half-maximal activity (AC50) in data set [6] (read-out: AC50), in [7], in data set [8], in [9] and in [10] was over 30 µM in each case.
As to `Brc1c(NC2=NCCN2)ccc2nccnc12` [BRIMONIDINE], the AC50 (in data set [1]; in data set [2]; in [4]; in data set [5]; at D(1A) dopamine receptor; in data set [6] (read-out: AC50)) was over 30 µM each time. Also, the AC50 in [7] is over 30 µM; in data set [8], 0.645 µM; in data set [9] it was over 30 µM.
Turning to `CC(CC1c2ccccc2CCc2ccccc21)CN(C)C` (centres undefined) [BUTRIPTYLINE], the AC50 in [2] is over 30 µM; in data set [4] it was 3 µM; in data set [5] it was over 30 µM; at D(1A) dopamine receptor it was over 30 µM; in data set [6] (read-out: AC50), 2.1 µM; in [8], over 30 µM. The AC50 in data set [10] was over 30 µM.
`Nc1nc(Cl)nc2c1ncn2[C@H]1C[C@H](O)[C@@H](CO)O1` [CLADRIBINE]: the AC50 in data set [1] is over 30 µM; in [2] it was 28 µM; in data set [4] it was over 30 µM; in [5] it was over 30 µM; at D(1A) dopamine receptor, over 30 µM; in data set [6] (read-out: AC50), over 30 µM. The AC50 in data set [7], in [8], in [9] and in data set [10] was over 30 µM throughout.
With `Clc1ccccc1C(c1ccccc1)(c1ccccc1)n1ccnc1` [CLOTRIMAZOLE], the concentration at half-maximal activity (AC50) in [1] is over 10 µM; in data set [3], 13.6 µM; in data set [4], over 30 µM; in data set [5] it was over 10 µM; in [7], over 10 µM; in data set [8] it was over 30 µM. Besides, the AC50 in [9] is 14.8 µM.
As to `COc1ccc2c3c1O[C@H]1[C@@H](O)CC[C@H]4[C@@H](C2)N(C)CC[C@@]341` [DIHYDROCODEINE], the AC50 in data set [2] is over 30 µM; in data set [4] it was over 10 µM; in [5], over 30 µM; on D(1A) dopamine receptor it was over 30 µM; in data set [6] (read-out: AC50), over 30 µM; in data set [8], over 30 µM. The compound also gave an AC50 in data set [10] of over 30 µM.
As to `NC(=O)OCC(COC(N)=O)c1ccccc1` [FELBAMATE], the AC50 in data set [1] was over 10 µM; in data set [2] it was over 30 µM; in data set [3], over 10 µM; in [4], over 30 µM; in [5] it was over 10 µM; on D(1A) dopamine receptor, over 10 µM. Further, the half-maximal activity concentration (AC50) in data set [6] (read-out: AC50) was over 30 µM; in [7], over 10 µM; in data set [9], over 10 µM; in [10], over 10 µM.
Consider `CO[C@]12C[C@@H](COC(=O)c3cncc(Br)c3)CN(C)[C@@H]1Cc1cn(C)c3cccc2c13` [NICERGOLINE], for which the half-maximal activity concentration (AC50) in [6] (read-out: AC50) was found to be 0.13 µM.
Consider `NC(=O)CN1CC(O)CC1=O` (centres undefined) [OXIRACETAM], for which the concentration at half-maximal activity (AC50) (in [1]; in data set [2]; in [4]; in data set [5]; on D(1A) dopamine receptor; in data set [6] (read-out: AC50)) was over 30 µM throughout. Besides, the AC50 in [7], in data set [8], in data set [9] and in data set [10] was over 30 µM each time.
Turning to `Cc1cc(C(C)(C)C)c(O)c(C)c1CC1=NCCN1` [OXYMETAZOLINE], the concentration at half-maximal activity (AC50) in [1] is 23 µM; in data set [2], over 30 µM; in [4], 6.8 µM; in [5] it was over 30 µM; at D(1A) dopamine receptor it was over 30 µM; in [6] (read-out: AC50), over 30 µM. Further, the concentration at half-maximal activity (AC50) in [7] and in [9] was over 30 µM each time.
As for `C[C@H]1COc2c(C3(N)CC3)c(F)cc3c(=O)c(C(=O)O)cn1c23` [PAZUFLOXACIN], the AC50 in data set [1] was over 10 µM; in data set [2], over 30 µM; in data set [3] it was over 10 µM; in data set [4] it was over 30 µM; in data set [5] it was over 10 µM; at D(1A) dopamine receptor it was over 10 µM. Moreover, the half-maximal activity concentration (AC50) was over 30 µM in [6] (read-out: AC50), over 10 µM in data set [7], over 10 µM in data set [9] and over 10 µM in data set [10].
With `CC/C(=C(\c1ccccc1)c1ccc(OCCN(C)C)cc1)c1ccccc1` [TAMOXIFEN], the AC50 is over 10 µM in data set [1]; over 10 µM in data set [3]; 7 µM in data set [4]; over 10 µM in [5]; over 10 µM in data set [7]; over 30 µM in data set [8]. The AC50 is 12.3 µM in data set [9] and over 10 µM in [10].
As to `COc1cccc(C2(O)CCCCC2CN(C)C)c1` (centres undefined) [TRAMADOL], the AC50 was over 30 µM in data set [2]; over 10 µM in data set [3]; over 30 µM in data set [4]; over 10 µM in data set [5]; over 10 µM at D(1A) dopamine receptor; over 30 µM in [6] (read-out: AC50). The AC50 was over 30 µM in [8], over 10 µM in data set [9] and over 10 µM in data set [10].
In the case of `CC1(C)CCC(CN2CCN(c3ccc(C(=O)NS(=O)(=O)c4ccc(NCC5CCOCC5)c([N+](=O)[O-])c4)c(Oc4cnc5[nH]ccc5c4)c3)CC2)=C(c2ccc(Cl)cc2)C1` [VENETOCLAX], the half-maximal activity concentration (AC50) in data set [2] was over 30 µM; in data set [5] it was over 30 µM; at D(1A) dopamine receptor, over 30 µM; in [6] (read-out: AC50) it was over 30 µM; in data set [9], 22 µM.
Take THIMEROSAL: the AC50 at D(1A) dopamine receptor is over 100 µM; in [6] (human, cellular components) it was over 30 µM.
